Results taken from ChEMBL document CHEMBL3885881, “DrugMatrix”.

Organism: Rattus norvegicus
Experiment: DrugMatrix - Regimen: Daily Repeat
Assay type: toxicity, organism-based, Sprague-Dawley
Design: regimen Daily Repeat, gender Male, age 6-8 weeks
Conditions: in vivo, sc, route mini-PUMP - SUBCUTANEOUS, vehicle 100 % SALINE; for ABSOLUTE BASOPHIL / ABSOLUTE EOSINOPHIL / ABSOLUTE LYMPHOCYTE / ABSOLUTE MONOCYTE / ABSOLUTE SEGMENTED NEUTROPHIL / BASOPHIL / EOSINOPHIL / ERYTHROCYTE COUNT / HEMOGLOBIN / LEUKOCYTE COUNT / LYMPHOCYTE / MEAN CORPUSCULAR HEMOGLOBIN / MEAN CORPUSCULAR HEMOGLOBIN CONCENTRATION / MEAN CORPUSCULAR VOLUME / NUCLEATED RED BLOOD CELLS / PLATELET COUNT: tissue Blood; for ALANINE AMINOTRANSFERASE / ALBUMIN / ALKALINE PHOSPHATASE / ASPARTATE AMINOTRANSFERASE / BLOOD UREA NITROGEN / CARBON DIOXIDE / CHLORIDE / CHOLESTEROL / CREATININE / LACTATE DEHYDROGENASE / LIPASE / PHOSPHORUS / POTASSIUM / SODIUM / TOTAL BILIRUBIN / TOTAL PROTEIN: tissue Plasma
[1] = 0 mg/kg, 72 h, dose level Control, time 3 day
[2] = 0 mg/kg, 120 h, dose level Control, time 5 day
[3] = 0 mg/kg, […], dose level Control, time 14 day
[4] = […], 72 h, dose 0.77 mg/Kg, dose level High, time 3 day
[5] = […], 120 h, dose 0.77 mg/Kg, dose level High, time 5 day

## CNCC(O)c1ccc(O)c(O)c1 (configuration not stated) [RACEPINEPHRINE]
[1]
  ABSOLUTE BASOPHIL: 0 CELLS/uL
  ABSOLUTE EOSINOPHIL: 77.17 CELLS/uL
  ABSOLUTE LYMPHOCYTE: 14293.83 CELLS/uL
  ABSOLUTE MONOCYTE: 354 CELLS/uL
  ABSOLUTE SEGMENTED NEUTROPHIL: 1658.33 CELLS/uL
  BASOPHIL: 0%
  EOSINOPHIL: 0.5%
  ERYTHROCYTE COUNT: 6.27 x10E6/uL
  HEMOGLOBIN: 13.4 G/DL
  LEUKOCYTE COUNT: 16.38 x10E3/uL
  LYMPHOCYTE: 87.17%
  MEAN CORPUSCULAR HEMOGLOBIN: 21.42 pg
  MEAN CORPUSCULAR HEMOGLOBIN CONCENTRATION: 36.27 G/DL
  MEAN CORPUSCULAR VOLUME: 59.03 fL
  NUCLEATED RED BLOOD CELLS: 0 /100WBC
  PLATELET COUNT: 904.67 x10E3/uL
  ALANINE AMINOTRANSFERASE: 48.33 u/L
  ALBUMIN: 3.82 G/DL
  ALKALINE PHOSPHATASE: 282.33 u/L
  ASPARTATE AMINOTRANSFERASE: 86.83 u/L
  BLOOD UREA NITROGEN: 20.17 mg/dL
  CARBON DIOXIDE: 34.67 mmol/L
  CHLORIDE: 102 MEQ/L
  CHOLESTEROL: 71.5 mg/dL
  CREATININE: 0.2 mg/dL
  LACTATE DEHYDROGENASE: 159 u/L
  LIPASE: 9 u/L
  PHOSPHORUS: 10.12 mg/dL
  POTASSIUM: 5.92 MEQ/L
  SODIUM: 147.8 MEQ/L
  TOTAL BILIRUBIN: 0.2 mg/dL
  TOTAL PROTEIN: 6.05 G/DL
[2]
  ABSOLUTE BASOPHIL: 0 CELLS/uL
  ABSOLUTE EOSINOPHIL: 0 CELLS/uL
  ABSOLUTE LYMPHOCYTE: 14257.33 CELLS/uL
  ABSOLUTE MONOCYTE: 326 CELLS/uL
  ABSOLUTE SEGMENTED NEUTROPHIL: 3216.67 CELLS/uL
  BASOPHIL: 0%
  EOSINOPHIL: 0%
  ERYTHROCYTE COUNT: 6.11 x10E6/uL
  HEMOGLOBIN: 13.18 G/DL
  LEUKOCYTE COUNT: 17.8 x10E3/uL
  LYMPHOCYTE: 80.5%
  MEAN CORPUSCULAR HEMOGLOBIN: 21.62 pg
  MEAN CORPUSCULAR HEMOGLOBIN CONCENTRATION: 36.42 G/DL
  MEAN CORPUSCULAR VOLUME: 59.37 fL
  NUCLEATED RED BLOOD CELLS: 0 /100WBC
  PLATELET COUNT: 1311 x10E3/uL
  ALANINE AMINOTRANSFERASE: 47 u/L
  ALBUMIN: 3.83 G/DL
  ALKALINE PHOSPHATASE: 260.33 u/L
  ASPARTATE AMINOTRANSFERASE: 76.17 u/L
  BLOOD UREA NITROGEN: 14.67 mg/dL
  CARBON DIOXIDE: 31.33 mmol/L
  CHLORIDE: 101.17 MEQ/L
  CHOLESTEROL: 75 mg/dL
  LACTATE DEHYDROGENASE: 147.33 u/L
  LIPASE: 9.33 u/L
  PHOSPHORUS: 10.97 mg/dL
  POTASSIUM: 6 MEQ/L
  SODIUM: 145.52 MEQ/L
  TOTAL PROTEIN: 5.83 G/DL
[3]
  ABSOLUTE BASOPHIL: 0 CELLS/uL
  ABSOLUTE EOSINOPHIL: 64.5 CELLS/uL
  ABSOLUTE LYMPHOCYTE: 12507.83 CELLS/uL
  ABSOLUTE MONOCYTE: 380.33 CELLS/uL
  ABSOLUTE SEGMENTED NEUTROPHIL: 2414 CELLS/uL
  BASOPHIL: 0%
  EOSINOPHIL: 0.5%
  ERYTHROCYTE COUNT: 6.1 x10E6/uL
  HEMOGLOBIN: 12.88 G/DL
  LEUKOCYTE COUNT: 15.37 x10E3/uL
  LYMPHOCYTE: 80.83%
  MEAN CORPUSCULAR HEMOGLOBIN: 21.18 pg
  MEAN CORPUSCULAR HEMOGLOBIN CONCENTRATION: 36.43 G/DL
  MEAN CORPUSCULAR VOLUME: 58.17 fL
  NUCLEATED RED BLOOD CELLS: 0.17 /100WBC
  PLATELET COUNT: 1016 x10E3/uL
  ALANINE AMINOTRANSFERASE: 53.33 u/L
  ALBUMIN: 3.93 G/DL
  ALKALINE PHOSPHATASE: 319.83 u/L
  ASPARTATE AMINOTRANSFERASE: 84 u/L
  BLOOD UREA NITROGEN: 15.5 mg/dL
  CARBON DIOXIDE: 34 mmol/L
  CHLORIDE: 101.83 MEQ/L
  CHOLESTEROL: 57 mg/dL
  CREATININE: 0.21 mg/dL
  LACTATE DEHYDROGENASE: 104.67 u/L
  LIPASE: 9.17 u/L
  PHOSPHORUS: 11.12 mg/dL
  POTASSIUM: 5.81 MEQ/L
  SODIUM: 144.85 MEQ/L
  TOTAL BILIRUBIN: 0.18 mg/dL
  TOTAL PROTEIN: 5.92 G/DL
[4]
  ABSOLUTE BASOPHIL: 0 CELLS/uL
  ABSOLUTE EOSINOPHIL: 65.33 CELLS/uL
  ABSOLUTE LYMPHOCYTE: 15348.67 CELLS/uL
  ABSOLUTE MONOCYTE: 375.67 CELLS/uL
  ABSOLUTE SEGMENTED NEUTROPHIL: 2177 CELLS/uL
  BASOPHIL: 0%
  ERYTHROCYTE COUNT: 6.29 x10E6/uL
  HEMOGLOBIN: 13.53 G/DL
  LEUKOCYTE COUNT: 17.97 x10E3/uL
  MEAN CORPUSCULAR HEMOGLOBIN: 21.53 pg
  MEAN CORPUSCULAR HEMOGLOBIN CONCENTRATION: 36.13 G/DL
  MEAN CORPUSCULAR VOLUME: 59.7 fL
  NUCLEATED RED BLOOD CELLS: 0 /100WBC
  PLATELET COUNT: 1245.67 x10E3/uL
  ALANINE AMINOTRANSFERASE: 52.67 u/L
  ALBUMIN: 4 G/DL
  ALKALINE PHOSPHATASE: 340.67 u/L
  ASPARTATE AMINOTRANSFERASE: 85 u/L
  BLOOD UREA NITROGEN: 16.33 mg/dL
  CARBON DIOXIDE: 25.67 mmol/L
  CHLORIDE: 101 MEQ/L
  CHOLESTEROL: 83.33 mg/dL
  LACTATE DEHYDROGENASE: 441.33 u/L
  LIPASE: 9.67 u/L
  PHOSPHORUS: 12.23 mg/dL
  POTASSIUM: 6.83 MEQ/L
  SODIUM: 145.53 MEQ/L
  TOTAL BILIRUBIN: 0.13 mg/dL
  TOTAL PROTEIN: 6.3 G/DL
[5]
  ABSOLUTE BASOPHIL: 0 CELLS/uL
  ABSOLUTE EOSINOPHIL: 0 CELLS/uL
  ABSOLUTE LYMPHOCYTE: 14606 CELLS/uL
  ABSOLUTE MONOCYTE: 577.33 CELLS/uL
  ABSOLUTE SEGMENTED NEUTROPHIL: 4283.33 CELLS/uL
  BASOPHIL: 0%
  EOSINOPHIL: 0%
  ERYTHROCYTE COUNT: 6.1 x10E6/uL
  HEMOGLOBIN: 13.07 G/DL
  LEUKOCYTE COUNT: 19.47 x10E3/uL
  LYMPHOCYTE: 75%
  MEAN CORPUSCULAR HEMOGLOBIN: 21.43 pg
  MEAN CORPUSCULAR HEMOGLOBIN CONCENTRATION: 36.87 G/DL
  MEAN CORPUSCULAR VOLUME: 58.1 fL
  NUCLEATED RED BLOOD CELLS: 0 /100WBC
  PLATELET COUNT: 1295.33 x10E3/uL
  ALANINE AMINOTRANSFERASE: 52.33 u/L
  ALBUMIN: 3.83 G/DL
  ALKALINE PHOSPHATASE: 328 u/L
  ASPARTATE AMINOTRANSFERASE: 85.67 u/L
  CHOLESTEROL: 64.67 mg/dL
  CREATININE: 0.15 mg/dL
  LACTATE DEHYDROGENASE: 386.33 u/L
  LIPASE: 9 u/L
  PHOSPHORUS: 12.27 mg/dL
  POTASSIUM: 6.8 MEQ/L
  SODIUM: 147.2 MEQ/L
  TOTAL BILIRUBIN: 0.1 mg/dL
  TOTAL PROTEIN: 5.9 G/DL
